From ChEMBL document CHEMBL2150989, “Effect of phospholipid-based formulations of Boswellia serrata extract on the solubility, permeability, and absorption of the individual boswellic acid constituents present” (J Nat Prod, 2012)
Values after ≈ are worked out from the molar mass of the structure shown.

Assays:
[1] = Solubility of the compound in fed state simulated intestinal fluid at compound to Lipoid S100 ratio 1:3 after 3 hrs by HPLC analysis; type: physicochemical
[2] = Solubility of the compound in water at pH 6.5; type: physicochemical
[3] = Solubility of the compound in fasted state simulated intestinal fluid at compound to Lipoid S100 ratio 1:1 after 3 hrs by HPLC analysis in presence of 10:1 molar ratio of Lipoid S100 to tween 80; type: physicochemical
[4] = Solubility of the compound in fasted state simulated intestinal fluid at compound to Lipoid S100 ratio 1:1 after 3 hrs by HPLC analysis in presence of 5:1 molar ratio of Lipoid S100 to tween 80; type: physicochemical
[5] = Solubility of the compound in fasted state simulated intestinal fluid at compound to Lipoid S100 ratio 1:1 after 3 hrs by HPLC analysis in presence of 3:1 molar ratio of Lipoid S100 to tween 80; type: physicochemical
[6] = Solubility of the compound in fasted state simulated intestinal fluid at compound to Lipoid S100 ratio 1:3 after 3 hrs by HPLC analysis in presence of 10:1 molar ratio of Lipoid S100 to tween 80; type: physicochemical
[7] = Solubility of the compound in fasted state simulated intestinal fluid at compound to Lipoid S100 ratio 1:3 after 3 hrs by HPLC analysis in presence of 5:1 molar ratio of Lipoid S100 to tween 80; type: physicochemical
[8] = Solubility of the compound in fasted state simulated intestinal fluid at compound to Lipoid S100 ratio 1:3 after 3 hrs by HPLC analysis in presence of 3:1 molar ratio of Lipoid S100 to tween 80; type: physicochemical
Caco-2 = experiment: Permeability from apical to basolateral side of human Caco2 cells at compound to Lipoid S100 ratio 1:3 in presence of 5:1 molar ratio of Lipoid S100 to tween 80; type: ADME, cell-based; details: BLD = below limit of detection
[9] = Permeability from apical to basolateral side of human Caco2 cells assessed as mass balance at compound, Lipoid S100 and tween 80 ratio 1:1:1; type: ADME, cell-based; details: Caco-2, read-out: permeability
[10] = Permeability from apical to basolateral side of human Caco2 cells assessed as mass balance at compound to Lipoid S100 ratio 1:1; type: ADME, cell-based; details: Caco-2, read-out: permeability
[11] = Permeability from apical to basolateral side of human Caco2 cells assessed as mass balance at compound, Lipoid S100 and vitamin E-TPGS ratio 1:2:1; type: ADME, cell-based; details: Caco-2, read-out: permeability
[12] = Permeability from apical to basolateral side of human Caco2 cells assessed as mass balance at compound to Lipoid S100 ratio 1:3 in presence of 5:1 molar ratio of Lipoid S100 to tween 80; type: ADME, cell-based; details: Caco-2, read-out: permeability
[13] = Permeability from apical to basolateral side of human Caco2 cells assessed as mass balance at compound to Lipoid S100 ratio 1:3; type: ADME, cell-based; details: Caco-2, read-out: permeability
[14] = Permeability from apical to basolateral side of human Caco2 cells assessed as mass balance at 5 mg/mL; type: ADME, cell-based; details: Caco-2, read-out: permeability
[15] = Permeability from apical to basolateral side of human Caco2 cells assessed as mass balance at compound, Lipoid S100 and vitamin E-TPGS ratio 1:1:1; type: ADME, cell-based; details: Caco-2, read-out: permeability
[16] = Permeability from apical to basolateral side of human Caco2 cells assessed as mass balance at compound, Lipoid S100 and gelucire 44/14 ratio 1:1:1; type: ADME, cell-based; details: Caco-2, read-out: permeability
[17] = Permeability from apical to basolateral side of human Caco2 cells assessed as mass balance at compound, Lipoid S100 and pluronic f68 ratio 1:1:1; type: ADME, cell-based; details: Caco-2, read-out: permeability
[18] = Permeability from apical to basolateral side of human Caco2 cells assessed as mass balance at compound, Lipoid S100 and pluronic f127 ratio 1:1:1; type: ADME, cell-based; details: Caco-2, read-out: permeability
[19] = Solubility of the compound in modified fasted state simulated intestinal fluid at 5 mg/mL after 3 hrs by HPLC analysis; type: physicochemical
[20] = Solubility of the compound in HBSS buffer containing 4% bovine serum albumin at 5 mg/mL after 3 hrs by HPLC analysis; type: physicochemical
[21] = Solubility of the compound in fasted state simulated intestinal fluid at compound, Lipoid S100 and pluronic f127 ratio 1:1:1 after 3 hrs by HPLC analysis; type: physicochemical
[22] = Apparent permeability from apical to basolateral side of human Caco2 cells at compound, Lipoid S100 and pluronic f127 ratio 1:1:1 using modified fasted state simulated intestinal fluid; type: ADME, cell-based; details: Caco-2
[23] = Apparent permeability from apical to basolateral side of human Caco2 cells at compound, Lipoid S100 and pluronic f127 ratio 1:1:1 using modified fed state simulated intestinal fluid; type: ADME, cell-based; details: Caco-2
[24] = Apparent permeability from apical to basolateral side of human Caco2 cells at compound, Lipoid S100 and pluronic f127 ratio 1:1:1 using HBSS buffer; type: ADME, cell-based; details: Caco-2
Plasma [25] = experiment: Plasma concentration in rat at 240 mg/kg, po administered using compound, Lipoid S100 and pluronic f127 ratio 1:1:1 formulation relative to non-formulated compound after 2 hrs; type: ADME, organism-based; set-up: dose 240 mg/kg, route oral; details: in vivo
Plasma [26] = experiment: Plasma concentration in rat at 240 mg/kg, po administered using compound, Lipoid S100 and pluronic f127 ratio 1:1:1 formulation relative to non-formulated compound after 8 hrs; type: ADME, organism-based; set-up: dose 240 mg/kg, route oral; details: in vivo
Brain [27] = experiment: Drug level in rat brain at 240 mg/kg, po; type: ADME, organism-based; set-up: dose 240 mg/kg, route oral; details: in vivo
Brain [28] = experiment: Drug level in rat brain at 240 mg/kg, po administered using compound, Lipoid S100 and pluronic f127 ratio 1:1:1 formulation; type: ADME, organism-based; set-up: dose 240 mg/kg, route oral; details: in vivo
[29] = Solubility of the compound in water at 5 mg/mL after 3 hrs by HPLC analysis; type: physicochemical
[30] = Solubility of the compound in fasted state simulated intestinal fluid at 5 mg/mL after 3 hrs by HPLC analysis; type: physicochemical
[31] = Solubility of the compound in fed state simulated intestinal fluid at 5 mg/mL after 3 hrs by HPLC analysis; type: physicochemical
[32] = Solubility of the compound in water at compound to Lipoid S100 ratio 1:1 after 3 hrs by HPLC analysis; type: physicochemical
[33] = Solubility of the compound in fasted state simulated intestinal fluid at compound to Lipoid S100 ratio 1:1 after 3 hrs by HPLC analysis; type: physicochemical
[34] = Solubility of the compound in fed state simulated intestinal fluid at compound to Lipoid S100 ratio 1:1 after 3 hrs by HPLC analysis; type: physicochemical
[35] = Solubility of the compound in water at compound to Lipoid S100 ratio 1:3 after 3 hrs by HPLC analysis; type: physicochemical
[36] = Solubility of the compound in fasted state simulated intestinal fluid at compound to Lipoid S100 ratio 1:3 after 3 hrs by HPLC analysis; type: physicochemical
Plasma [37] = experiment: Plasma concentration in rat at 240 mg/kg, po administered using compound, Lipoid S100 and pluronic f127 ratio 1:1:1 formulation relative to non-formulated compound after 4 to 6 hrs; type: ADME, organism-based; set-up: dose 240 mg/kg, route oral; details: in vivo
Prostaglandin E synthase = biological target: T1, Prostaglandin E synthase (Homo sapiens, UniProt O14684); experiment: Inhibition of mPGES1
T1 sequence (O14684 whole entry): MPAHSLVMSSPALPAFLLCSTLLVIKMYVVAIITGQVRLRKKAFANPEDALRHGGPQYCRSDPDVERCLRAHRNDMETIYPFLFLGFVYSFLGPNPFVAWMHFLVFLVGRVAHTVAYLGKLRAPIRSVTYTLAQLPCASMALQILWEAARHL

[38] = Ratio drug level in brain to plasma of rat at 240 mg/kg, po after 8 hrs; type: ADME, organism-based; set-up: dose 240 mg/kg, route oral; details: brain and plasma, read-out: BPR
[39] = Ratio drug level in brain to plasma of rat at 240 mg/kg, po administered using compound, Lipoid S100 and pluronic f127 ratio 1:1:1 formulation after 8 hrs; type: ADME, organism-based; set-up: dose 240 mg/kg, route oral; details: read-out: BPR
Plasma [40] = experiment: Plasma concentration in rat at 240 mg/kg, po administered using compound, Lipoid S100 and pluronic f127 ratio 1:1:1 formulation; type: ADME, organism-based; set-up: dose 240 mg/kg, route oral; details: in vivo

Row | Structure (SMILES) | solubility at 3 h [1] [µg/mL] | solubility [2] [µg/mL] | solubility at 3 h [3] [µg/mL] | solubility at 3 h [4] [µg/mL] | solubility at 3 h [5] [µg/mL] | solubility at 3 h [6] [µg/mL] | solubility at 3 h [7] [µg/mL] | solubility at 3 h [8] [µg/mL] | permeability (Caco-2) | recovery [9] [%] | recovery [10] [%] | recovery [11] [%] | recovery [12] [%] | recovery [13] [%] | recovery at 5 mg/mL [14] [%] | Drug uptake (Brain [27]) [ng/g] | Drug uptake (Brain [28]) [ng/g] | fold change (FC) (Plasma [37]) | Kp at 8 h [38] | Kp at 8 h [39] | further results
1 | C[C@H]1[C@H](C)CC[C@]2(C)CC[C@]3(C)C(=CC(=O)[C@@H]4[C@@]5(C)CC[C@@H](O)[C@](C)(C(=O)O)[C@@H]5CC[C@]43C)[C@H]12 [11-KETO BOSWELLIC ACID] | 183 | 73.1 (≈ 155 µM) | 78.2 | 109 | 164 | 246 | 293 | 400 | BLD | 96.3 | 93.9 | 99.8 | 102 | 96 | 101 | 11.6 | 13.6 | – | – | – | recovery [15]: 101%; recovery [16]: 92%; recovery [17]: 90.1%; recovery [18]: 99.9%; solubility at 3 h [19]: 17 µg/mL (≈ 36.1 µM); solubility at 3 h [20]: 17.5 µg/mL (≈ 37.1 µM); solubility at 3 h [21]: 395 µg/mL; Papp A→B [22]: 3.7 ×10⁻⁶ cm/s; Papp A→B [23]: 3.2 ×10⁻⁶ cm/s; Papp A→B [24]: 2.9 ×10⁻⁶ cm/s; fold change (FC) (Plasma [25]): 26; fold change (FC) (Plasma [26]): 6; solubility at 3 h [29]: 1.16 µg/mL (≈ 2.46 µM); solubility at 3 h [30]: 15.9 µg/mL (≈ 33.8 µM); solubility at 3 h [31]: 73.1 µg/mL (≈ 155 µM); solubility at 3 h [32]: 5.18 µg/mL; solubility at 3 h [33]: 124 µg/mL; solubility at 3 h [34]: 252 µg/mL; solubility at 3 h [35]: 192 µg/mL; solubility at 3 h [36]: 151 µg/mL
2 | C[C@H]1[C@H](C)CC[C@]2(C)CC[C@]3(C)C(=CC[C@@H]4[C@@]5(C)CC[C@@H](O)[C@](C)(C(=O)O)[C@@H]5CC[C@]43C)[C@H]12 [BOSWELLIC ACID] | – | – | – | – | – | – | – | – | – | – | – | – | – | – | – | 1066.6 | 5908.2 | 26 | 0.2 | 5.5 | IC50 (Prostaglandin E synthase): 5 µM
3 | CC(=O)O[C@@H]1CC[C@@]2(C)[C@@H](CC[C@]3(C)[C@@H]2CC=C2[C@@H]4[C@@H](C)[C@H](C)CC[C@]4(C)CC[C@]23C)[C@@]1(C)C(=O)O | – | – | – | – | – | – | – | – | – | – | – | – | – | – | – | 163.7 | 156.1 | 26 | – | – | –
4 | CC1(C)CC[C@]2(C)CC[C@]3(C)C(=CC[C@@H]4[C@@]5(C)CC[C@@H](O)[C@](C)(C(=O)O)[C@@H]5CC[C@]43C)[C@@H]2C1 | – | – | – | – | – | – | – | – | – | – | – | – | – | – | – | 485.1 | 2443.9 | 26 | 0.18 | 4.4 | –
5 | CC(=O)O[C@@H]1CC[C@@]2(C)[C@@H](CC[C@]3(C)[C@@H]2C(=O)C=C2[C@@H]4[C@@H](C)[C@H](C)CC[C@]4(C)CC[C@]23C)[C@@]1(C)C(=O)O [AKBA] | 35.8 | > 60 | 13.4 | 18.2 | 27.6 | 44.7 | 59.5 | 69.5 | BLD | 93.3 | 88.3 | 98 | 104 | 96.4 | 95.2 | 37.5 | 203.8 | – | 0.07 | 2.2 | recovery [15]: 98.8%; recovery [16]: 90.7%; recovery [17]: 87.8%; recovery [18]: 101%; solubility at 3 h [21]: 65.3 µg/mL; Papp A→B [22]: 3.1 ×10⁻⁶ cm/s; Papp A→B [23]: 2.8 ×10⁻⁶ cm/s; Papp A→B [24]: 2.5 ×10⁻⁶ cm/s; fold change (FC) (Plasma [25]): 14; fold change (FC) (Plasma [26]): 6; concentration (Plasma [40]): 1700 nM; solubility at 3 h [29]: 0.2 µg/mL (≈ 0.39 µM); solubility at 3 h [30]: 3.05 µg/mL (≈ 5.95 µM); solubility at 3 h [31]: 13.2 µg/mL (≈ 25.8 µM); solubility at 3 h [32]: 0.87 µg/mL; solubility at 3 h [33]: 24.2 µg/mL; solubility at 3 h [34]: 48 µg/mL; solubility at 3 h [35]: 51.4 µg/mL; solubility at 3 h [36]: 29.7 µg/mL
6 | CC(=O)O[C@@H]1CC[C@@]2(C)[C@@H](CC[C@]3(C)[C@@H]2CC=C2[C@@H]4CC(C)(C)CC[C@]4(C)CC[C@]23C)[C@@]1(C)C(=O)O | – | – | – | – | – | – | – | – | – | – | – | – | – | – | – | 43 | 60.1 | 26 | – | – | –
